Tests used:
[1] = molecular target: T1, wild-type human cardiac sodium channel, hNav1.5 (Homo sapiens, UniProt Q14524); assay: Late INa screening assay (PatchXpress whole cell patch clamp); format: cell-based; conditions: compound at 10 uM; HEK293 hNav1.5; late INa generated with Tefluthrin or ATX II; read-out: Late INa 10 uM (percent block of late INa)
T1 construct: host or cells: HEK293
Procedure: The late sodium current (Late INa) and peak sodium current (Peak INa) assays were performed on an automated electrophysiology platform, PatchXpress 7000A (MDS Analytical Technologies, Sunnyvale, Calif.), using the whole cell patch clamp technique to measure currents through the cell membrane of up to 16 cells at a time. The assay used an HEK293 (human embryonic kidney) cell line heterologously expressing the wild-type human cardiac sodium channel, hNav1.5, purchased from Millipore (Billerica, Mass.). No beta subunits were coexpressed with the Na channel alpha subunit. Cells were maintained with standard tissue culture procedures, and stable channel expression was maintained with 400 μg/ml Geneticin in the culture medium. Cells isolated for use on PatchXpress were incubated for 5 minutes in Versene 1× and then for 2 minutes in 0.0125% Trypsin-EDTA (both at 37° C.) to ensure that 80-90% of the cells are single and not part of a cell cluster. Experiments were carried out at 24-27° C.
For both the Late INa and Peak INa assays, series resistance compensation was set to 50% and whole-cell compensation was performed automatically. Currents were low-pass filtered at 10 kHz and digitized at 31.25 kHz. Currents through open sodium channels were automatically recorded and stored in the DataXpress2 database (MDS Analytical Technologies, Sunnyvale, Calif.). Analysis was performed using DataXpress2 analysis software and data are compiled in Excel.
Compound stocks were routinely made in glass vials to 10 mM in dimethyl sulfoxide (DMSO). In some cases, when compounds were not soluble in DMSO, they are made in 100% ethanol. Stocks were sonicated as necessary. The extracellular solution for screening Late INa was composed of: 140 mM NaCl, 4 mM KCl, 1.8 mM CaCl2, 0.75 mM MgCl2, and 5 mM HEPES with pH adjusted to 7.4 using NaOH. The extracellular solution for screening Peak INa was composed of: 20 mM NaCl, 120 mM N-methyl-D glucamine, 4 mM KCl, 1.8 mM CaCl2, 0.75 mM MgCl2, and 5 mM HEPES with pH adjusted to 7.4 using HCl. The intracellular solution used to perfuse the inside of the cells for both the Late INa and Peak INa assays contained: 120 mM CsF, 20 mM CsCl, 5 mM EGTA, 5 mM HEPES and pH adjusted to 7.4 with CsOH. Compounds were diluted in extracellular solution to […] in glass vials and then transferred to glass well plates before robotic addition to the cells. The 0Na extracellular solution used at the end of each experiment for the Late INa and Peak INa assays to measure baseline current contained: 140 mM N-methyl-D-glucamine; 4 mM KCl; 1.8 mM CaCl2; 0.75 mM MgCl2; 5 mM HEPES and pH was adjusted to 7.4 with HCl.
For the Late INa assay, sodium channels were activated every 10 seconds (0.1 Hz) by depolarizing the cell membrane to −20 mV for 250 milliseconds (ms) from a holding potential of −120 mV. In response to a −20 mV voltage step, typical Nav1.5 sodium currents activated rapidly to a peak negative current and then inactivated nearly completely within 3-4 ms.
All compounds were tested to determine their activity in blocking the late sodium current. Late INa current was generated by adding 10 μM Tefluthrin (pyrethroid) to the extracellular solution while recording Na currents. For some experiments, 50 nM ATX II (sea anemone toxin), another late INa activator, was used to generate the late component. Both activators generated late components that are large, and thus block of the late component by compounds could be measured easily. For the purposes of the screening, late INa is defined as the mean current between 225 ms and 250 ms after stepping to −20 mV to activate Na channels. After establishing the whole cell recording configuration, late INa activators were added to each well 4 times over a 16-17 minute period so that the late component of the Na current reached a stable value. Compounds were then added (typically at 10 μM), in the presence of late INa activator, with 3 additions over the course of 7 or 8 minutes. […]

hERG potassium channel = molecular target: T2, hERG potassium channel (Homo sapiens, UniProt Q12809); assay: hERG screening assay (PatchXpress patch clamp, CHO cells); format: cell-based; conditions: CHO cells expressing hERG
T2 construct: expressed in transfected cells; host or cells: CHO (Chinese Hamster Ovary)
Procedure: Compounds were screened to test their activity in blocking the hERG potassium channel. The hERG channel is heterologously expressed in a CHO (Chinese Hamster Ovary) cell line. Cells were maintained with standard tissue culture procedures and stable channel expression was maintained with 500 μg/ml G418 in the culture medium. Cells were harvested for testing on the PatchXpress automated patch clamp with Accumax (Innovative Cell Technologies, San Diego, Calif.) to isolate single cells.
The following solutions were used for electrophysiological recordings. The external solution contained: 2 mM CaCl2; 2 mM MgCl2; 4 mM KCl; 150 mM NaCl; 10 mM Glucose; 10 mM HEPES (pH 7.4 with 1M NaOH, osmolarity). The internal solution contained: 140 mM KCl, 10 mM MgCl2, 6 mM EGTA, 5 mM HEPES, 5 mM ATP (pH adjusted to 7.25 with KOH).
hERG channels were activated when the voltage was stepped to +20 mV from the −80 mV holding potential. During a 5 second step at +20 mV, the channels activated and then largely inactivated, so the currents were relatively small. Upon returning to −50 mV from +20 mV, hERG currents transiently became much larger as inactivation was rapidly removed and then the channel closed. The first step to −50 mV for 300 ms was used as a baseline for measuring the peak amplitude during the step to −50 mV after channel activation. The peak current at −50 mV was measured both under control conditions and after addition of compound.
All compounds were prepared as 10 mM DMSO stocks in glass vials. Stock solutions were mixed by vigorous vortexing and sonication for about 2 minutes at room temperature. For testing, compounds were diluted in glass vials using an intermediate dilution step in pure DMSO and then further diluted to working concentrations in external solution. Dilutions were prepared no longer than 20 minutes before use.
After achieving the whole-cell configuration, cells were monitored for 90 seconds to assess stability and washed with external solution for 66 seconds. The voltage protocol described above was then applied to the cells every 12 seconds and throughout the whole procedure. Only cells with stable recording parameters and meeting specified health criteria were allowed to enter the compound addition procedure.
External solution containing 0.1% DMSO (vehicle) was applied to the cells first to establish the control peak current amplitude. After allowing the current to stabilize for […], 1 μM and then 10 μM test compounds were applied. Each compound concentration was added 4 times and cells were kept in test solution until the effect of the compound reached steady state or for a maximum of 12 minutes. After addition of test compound, a positive control (1 μM Cisapride) was added, and must block >95% of the current for the experiment to be considered valid. Washout in the external solution compartment was performed until the recovery of the current reached steady state. Data was analyzed using DataXpress, Clampfit (Molecular Devices, Inc., Sunnyvale) and Origin 7 (Originlab Corp.)

T2 sequence (Q12809 whole entry): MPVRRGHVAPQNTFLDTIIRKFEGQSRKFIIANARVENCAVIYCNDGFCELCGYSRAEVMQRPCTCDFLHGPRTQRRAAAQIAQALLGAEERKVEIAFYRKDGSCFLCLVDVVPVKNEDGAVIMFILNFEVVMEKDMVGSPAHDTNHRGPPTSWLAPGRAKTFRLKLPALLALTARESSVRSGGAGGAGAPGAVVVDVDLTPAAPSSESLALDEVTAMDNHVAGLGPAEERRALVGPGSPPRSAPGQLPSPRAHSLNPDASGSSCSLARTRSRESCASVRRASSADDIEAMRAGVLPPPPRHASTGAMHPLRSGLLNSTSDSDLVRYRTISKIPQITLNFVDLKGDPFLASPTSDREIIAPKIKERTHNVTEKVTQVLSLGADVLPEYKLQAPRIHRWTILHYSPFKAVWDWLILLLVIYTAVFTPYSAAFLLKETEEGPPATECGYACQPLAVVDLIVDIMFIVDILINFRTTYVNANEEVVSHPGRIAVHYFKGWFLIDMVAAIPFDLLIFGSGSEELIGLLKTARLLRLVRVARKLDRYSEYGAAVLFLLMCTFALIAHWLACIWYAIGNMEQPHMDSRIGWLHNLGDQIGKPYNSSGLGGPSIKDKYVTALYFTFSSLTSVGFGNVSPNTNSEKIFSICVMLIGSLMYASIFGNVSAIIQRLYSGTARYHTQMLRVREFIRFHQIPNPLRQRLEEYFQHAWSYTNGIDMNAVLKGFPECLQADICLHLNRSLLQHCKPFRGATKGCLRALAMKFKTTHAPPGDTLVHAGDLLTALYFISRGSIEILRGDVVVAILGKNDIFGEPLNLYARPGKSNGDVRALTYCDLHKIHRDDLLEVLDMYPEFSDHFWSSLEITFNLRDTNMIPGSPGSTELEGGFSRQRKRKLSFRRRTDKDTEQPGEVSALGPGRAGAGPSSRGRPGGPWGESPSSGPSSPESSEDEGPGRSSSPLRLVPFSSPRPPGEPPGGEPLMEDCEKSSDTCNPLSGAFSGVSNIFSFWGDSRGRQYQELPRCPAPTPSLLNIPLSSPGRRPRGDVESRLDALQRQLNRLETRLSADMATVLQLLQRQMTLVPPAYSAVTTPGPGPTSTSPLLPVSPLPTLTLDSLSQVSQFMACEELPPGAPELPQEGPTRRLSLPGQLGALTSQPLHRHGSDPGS
T1 sequence (Q14524 whole entry): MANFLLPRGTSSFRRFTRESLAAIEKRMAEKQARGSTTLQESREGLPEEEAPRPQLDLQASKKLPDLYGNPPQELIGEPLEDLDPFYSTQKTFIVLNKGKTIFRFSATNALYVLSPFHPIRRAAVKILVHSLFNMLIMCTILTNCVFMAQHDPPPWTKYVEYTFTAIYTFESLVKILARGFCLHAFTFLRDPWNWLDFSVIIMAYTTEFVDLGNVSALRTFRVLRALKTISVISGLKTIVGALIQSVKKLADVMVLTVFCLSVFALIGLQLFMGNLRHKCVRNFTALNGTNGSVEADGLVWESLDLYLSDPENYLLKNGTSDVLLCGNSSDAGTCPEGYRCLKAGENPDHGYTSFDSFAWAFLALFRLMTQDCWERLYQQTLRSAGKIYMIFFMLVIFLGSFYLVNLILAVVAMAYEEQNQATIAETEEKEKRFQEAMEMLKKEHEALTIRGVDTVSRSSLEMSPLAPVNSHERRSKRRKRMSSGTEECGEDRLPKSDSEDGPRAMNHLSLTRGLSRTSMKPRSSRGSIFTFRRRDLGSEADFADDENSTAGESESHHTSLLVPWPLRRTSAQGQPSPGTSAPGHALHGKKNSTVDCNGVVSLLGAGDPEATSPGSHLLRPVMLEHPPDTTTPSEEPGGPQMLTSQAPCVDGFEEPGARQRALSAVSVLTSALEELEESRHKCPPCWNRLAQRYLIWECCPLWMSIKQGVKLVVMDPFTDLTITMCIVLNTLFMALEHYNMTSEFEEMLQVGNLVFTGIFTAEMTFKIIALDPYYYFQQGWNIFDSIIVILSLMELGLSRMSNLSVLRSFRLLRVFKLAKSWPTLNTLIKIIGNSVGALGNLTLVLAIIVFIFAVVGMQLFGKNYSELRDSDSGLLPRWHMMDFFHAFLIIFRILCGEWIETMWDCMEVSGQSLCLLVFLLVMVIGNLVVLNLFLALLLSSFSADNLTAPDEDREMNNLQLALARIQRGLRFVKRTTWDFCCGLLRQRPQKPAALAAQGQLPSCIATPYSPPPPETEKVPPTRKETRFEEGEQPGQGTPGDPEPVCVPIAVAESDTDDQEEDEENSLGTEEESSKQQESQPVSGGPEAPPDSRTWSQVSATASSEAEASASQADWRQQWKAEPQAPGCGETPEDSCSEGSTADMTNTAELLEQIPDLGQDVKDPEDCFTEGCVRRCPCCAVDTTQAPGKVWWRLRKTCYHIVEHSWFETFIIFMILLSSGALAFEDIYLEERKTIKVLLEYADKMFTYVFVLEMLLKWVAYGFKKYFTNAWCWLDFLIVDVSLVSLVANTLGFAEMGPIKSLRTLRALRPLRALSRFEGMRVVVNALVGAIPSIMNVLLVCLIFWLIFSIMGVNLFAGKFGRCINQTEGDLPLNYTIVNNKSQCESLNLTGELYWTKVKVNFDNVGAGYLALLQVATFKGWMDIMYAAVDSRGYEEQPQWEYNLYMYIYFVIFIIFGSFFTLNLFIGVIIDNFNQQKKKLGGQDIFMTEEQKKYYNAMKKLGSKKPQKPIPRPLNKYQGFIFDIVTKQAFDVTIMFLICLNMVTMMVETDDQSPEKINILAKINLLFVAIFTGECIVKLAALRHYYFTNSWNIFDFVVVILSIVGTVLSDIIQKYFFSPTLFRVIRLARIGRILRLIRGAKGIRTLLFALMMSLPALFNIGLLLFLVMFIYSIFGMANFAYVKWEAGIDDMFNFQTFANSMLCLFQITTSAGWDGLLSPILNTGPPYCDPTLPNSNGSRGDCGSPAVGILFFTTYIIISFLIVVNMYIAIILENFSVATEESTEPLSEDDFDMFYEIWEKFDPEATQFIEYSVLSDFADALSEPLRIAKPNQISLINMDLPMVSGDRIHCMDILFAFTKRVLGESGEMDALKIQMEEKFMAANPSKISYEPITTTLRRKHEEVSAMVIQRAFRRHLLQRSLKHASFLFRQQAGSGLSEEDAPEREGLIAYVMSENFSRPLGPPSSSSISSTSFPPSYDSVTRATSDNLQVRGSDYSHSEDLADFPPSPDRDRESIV

CCOC(=O)c1nc2ccc(-c3ccc(OC(F)(F)F)cc3)cc2n(C)c1=O [ethyl 4-methyl-3-oxo-6-[4-(trifluoromethoxy)phenyl]-3,4-dihydroquinoxaline-2-carboxylate]
inhibition at 10 µM [1]: 49.3% | HERG 1 uM (block of hERG current) (hERG potassium channel; compound at 1 uM): 34.0% | HERG 10 uM (block of hERG current) (hERG potassium channel; compound at 10 uM): 79.5%

— patent publication US8912190B2, “Substituted heterocyclic compounds” (Gilead Sciences, Inc., priority 2008, dated 2014)
